Patent US20060013801A1, “Prevention of and therapy for radiation toxicity of normal tissues using drugs which block il-1 activity” (priority 2002, published 2006)
Entries after “also recorded” stand apart in the source; their conditions may differ.

Columns and labels:
[1] = tested on: radiation (60 Gy) induced skin damage in MCa-35 mammary tumor-bearing mice; assay: Radiation induced skin damage by 5-scales Skin Scoring System; format: in vivo, C3H/HeN mice; conditions: for mice with severe skin damage (grades 4-5): 20 days after radiation
Experimental: (§1) Isotransplantable murine MCa-35 mammary tumor cells was inoculated i.m. into right hind thighs of 6-7 week-old female C3H/HeN mice (NCI, Fredrick, Md.). […] Mice were sacrificed 20 days after radiation.
(§2) Four experiment groups were used. […] Group 1 was radiation alone; mice in group 2 were given 50 mg/kg Celebrex 2 hours before radiation (2 hr pre-radiation); mice in group 3 and 4 were received the same amount of Celebrex at day 2 or day 7 post-radiation. […] All mice were sacrificed 20 day after radiation.
Radiation induce skin damage was assessed using 5-scales Skin Scoring System. 20 days after single 60 Gy radiation, mice from each treatment group were determined blindly for the degree of skin damage by three investigators. Grade 1: normal skin; grade 2: slight hair loss in irradiated area; grade 3: radish and swollen tissue; grad 4: small area erosion; grade 5: small ulceration. Grades 2-3 is referred as mild, and grades 4-5 is considered as severe skin damage.

[2] = tested on: C-C and C-X-C chemokine receptors mRNA; assay: RNase protection assay, C-C and C-X-C chemokine receptor mRNA expression; format: in vivo, C3H/HeN mice
Experimental: as §1, §2
Total RNA was isolated from tumors and skin overlying tumors, respectively, with 9-10 mice in each treatment group by pulverizing the frozen tissue, and dissolved in TRI Reagent (Molecular Research Center, Ohio) according to the manufacturer's specifications.
Differences were considered significant for p<0.05.

[3] = tested on: MCa-35 tumor and overlaying skin; assay: Histology of irradiated skin and MCa-35 tumor; format: in vivo, C3H/HeN mice
Source text: as §1
Tumors and the overlaying skin tissues were removed for histology and RNA preparation. Irradiated tissues (tumor and skin) were also collected for making paraffin blocks for immunohistochemical staining. Guidelines for the humane treatment of animals were followed as approved by the University of Rochester Committee on Animal Resources.
as §2
Immunohistochemistry methods have previously been described in detail. Immediately following cryostat sectioning, tissue slices (normal muscle and tumor) were stained with CD31 antibody (PharMingen Calif.) for determination of total vasculature. The stained sections were imaged using an epi-fluorescence equipped microscope, digitized (3-CCD camera), background-corrected, and image-analyzed using Image Pro software (Media Cybernetics, Mass.) and a 450 MHz Pentium computer. Color images from individual microscope fields were automatically acquired and digitally combined to form four montages of the tumor cross-section (total area=15.5 mm2) using a motorized stage and controller. The image montages were processed to enhance the contrast between background and CD31 staining. From the enhanced images, locations of CD31-stained vessels were recorded. The quantitative vascular information was analyzed using custom Fortran programs to perform a “closest individual” analysis as previously described. Briefly, the distances from computer-superimposed sampling points to the nearest blood vessel were determined. […]

MCP-1 mRNA = assay: RNase protection assay, MCP-1 mRNA expression; conditions: 60 Gy
MIP-2 mRNA = assay: RNase protection assay, MIP-2 mRNA expression
Rantes mRNA = assay: RNase protection assay, Rantes mRNA expression; conditions: 60 Gy, 50 mg/kg Celebrex, vs 7.4±1.6 control, P<0.05, ratio to GAPDH or L32 mRNA

## Cc1ccc(-c2cc(C(F)(F)F)nn2-c2ccc(S(N)(=O)=O)cc2)cc1 [Celebrex]
[1]; 50 mg/kg daily gavage, 15 doses in three weeks, single 60 Gy
  effect on radiation induced normal skin damage: significantly reduced; also recorded: less radiation-induced skin damage
[1]; 50 mg/kg gavage started 2 hr pre-radiation, 15 doses, single 60 Gy
  mice with severe skin damage (grades 4-5): 17.6%
[1]; 50 mg/kg gavage started day 2 post-radiation, 15 doses, single 60 Gy
  mice with severe skin damage (grades 4-5): 5.3%
[1]; 50 mg/kg gavage started day 7 post-radiation, 10 doses, single 60 Gy
  mice with severe skin damage (grades 4-5): 11.1%
[1]; 60 Gy, Celebrex-treated mice
  treated mice that still developed moderate or severe skin damage after radiation: 15-30%
[2]; skin of Celebrex-treated mice with less radiation-induced skin damage
  CXCR4 mRNA expression: significantly reduced
[2]; tumor skin, 60 Gy, not in tumor tissues
  mRNA expression of both C-C and C-X-C chemokine receptors in tumor skin: decrease mRNA expression
[3]; oral administration, compared with saline-treated controls
  effect on MCa-35 tumor histology (blood vessels, necrosis): reduction of blood vessels
[3]; pre- (2 hr) or post-radiation (day 2 or day 7) treatment, compared with saline-treated controls
  inflammation and inflammatory cell infiltration in the dermis: less inflammation and cellular component infiltration in the dermis; also recorded: less infiltration of inflammatory cells
[3]; tumor tissue, compared with saline controls
  infiltration of inflammatory cells in tumor tissue: not obviously altered
MCP-1 mRNA; irradiated skin, 50 mg/kg Celebrex, vs 18.8±3.2 control, p<0.05, ratio to GAPDH or L32 mRNA
  MCP-1 mRNA expression in irradiated skin tissues: 10.2±1.1
MCP-1 mRNA; tumor tissue
  reduction of MCP-1 mRNA expression in tumor tissues: not in tumor tissues
MIP-2 mRNA; after Celebrex treatment, 37.5% of mice with radiation alone
  tumor skin with high MIP-2 mRNA expression: 14.3%-28.6%
MIP-2 mRNA; tumor tissue, 60 Gy
  effect on tumor MIP-2 mRNA: did not significantly alter
Rantes mRNA
  Rantes mRNA expression in irradiated skin tissues: 2.3±1.1
